In patent US11207385B2, “Melanocortins and methods of use thereof” (Aequus Biopharma, Inc., priority 2015, dated 2021):
Values belong to the compound of their own block, whether it stands above or below them. Square brackets hold non-standard residues; d marks the D form. Ends that are not written are not given here. Nle = CCCC[C@H](N)C(=O)O

Assays:
plasma corticosterone = experiment: Steroidogenic effects: corticosterone response in healthy mice (ELISA); type: in vivo, Balb/c mice; settings: for Mean corticosterone: plasma 1 h after dosing
Method: Compositions described herein were administered to Balb/c mice to determine the half-maximal effective concentrations for induction of corticosteroids in healthy mice. Balb/c mice were divided into 13 groups of 4 animals each (Groups 1-13), and each animal was administered a composition at a dosage as indicated in Table 5.
Each animal was injected subcutaneously at 0.2 ml/mouse as in Table 5. One hour after vehicle or test compositions were administered, the mice were anesthetized and exsanguinated into pre-chilled EDTA-treated microtainer tubes (Becton-Dickinson). The whole blood was processed to plasma and assayed by ELISA for corticosterone (Enzo Life Sciences).

MCR2 = molecular target: T1, MCR2 (Homo sapiens, UniProt Q01718); experiment: cAMP production (LANCE cAMP assay) in CHO-MCR2 cells; type: cell-based
T1 construct: expressed in transfected cells; host or cells: CHO (CHO-MCR2)
T1 sequence (Q01718 whole entry): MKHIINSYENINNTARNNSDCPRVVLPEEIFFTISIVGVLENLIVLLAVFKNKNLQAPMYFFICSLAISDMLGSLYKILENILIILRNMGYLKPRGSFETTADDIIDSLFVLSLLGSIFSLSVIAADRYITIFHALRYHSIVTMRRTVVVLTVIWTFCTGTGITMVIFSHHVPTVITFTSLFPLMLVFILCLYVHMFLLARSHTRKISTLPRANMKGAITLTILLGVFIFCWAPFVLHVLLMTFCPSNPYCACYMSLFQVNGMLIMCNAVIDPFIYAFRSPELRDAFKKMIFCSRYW
T1 sequence (Q8TCY5 whole entry partner): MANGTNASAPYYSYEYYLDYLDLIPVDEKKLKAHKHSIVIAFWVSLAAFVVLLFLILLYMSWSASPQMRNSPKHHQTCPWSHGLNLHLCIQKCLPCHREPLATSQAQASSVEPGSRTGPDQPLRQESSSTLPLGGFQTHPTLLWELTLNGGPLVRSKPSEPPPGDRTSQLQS
From the text: The manufacturer's recommended protocol was followed.

[1] = tested on: murine models of gout (MSU-injected air pouch); experiment: Murine air pouch model of gout, neutrophil counts and IL-1β in exudate (Example 6); type: in vivo, Balb/c mice; settings: 3 and 10 nmol/mouse sc 1 h before MSU
Method: An air pouch was formed by injecting 6 mL of sterile air using a syringe filter with a 0.22 micron air filter and 23-gauge needle subcutaneously into a shaved skin site on the back of male Balb/c mice (age 6-8 weeks) on Day 0. The wound result from the pouch was allowed to heal for 3 days without any intervention. The pouch was then re-inflated with 3 mL of sterile air on Day 3. Three days after re-inflation on Day 6, compositions described herein were administered via subcutaneous injection 1 hour prior to the administration of 30 mg monosodium urate crystals (MSU) directly into the air pouch to induce an inflammatory response. Four hours after injection of MSU, mice were anesthetized and exsanguinated. Exudate from the air pouch was collected by lavaging the air pouch of each animal with 3 ml of sterile PBS containing 10 U/ml heparin. Analyses performed on exudates include determining neutrophil counts and IL-1β cytokine concentrations. […] 10 • 3) NDP-α-MSH-linker-linker-ACTH1-24, SEQ ID NO. 23 • 4) ACTH1-24-linker-linker-NDP-α-MSH, SEQ ID NO. 26
SEQ ID NOS. […] SEQ ID NO. 23 and SEQ ID NO. […] 10 in reducing neutrophil counts and IL-1β cytokine concentrations in collected exudate, and the arrangement of SEQ ID NO. […] 23.

MCR4 = molecular target: T2, MCR4 (Homo sapiens, UniProt P32245); experiment: cAMP production (LANCE cAMP assay) in CHO-MCR4 cells; type: cell-based; settings: Cell Pool B (partially enriched for MCR expression)
T2 construct: expressed in transfected cells; host or cells: CHO (CHO-MCR4)
T2 sequence (P32245 whole entry): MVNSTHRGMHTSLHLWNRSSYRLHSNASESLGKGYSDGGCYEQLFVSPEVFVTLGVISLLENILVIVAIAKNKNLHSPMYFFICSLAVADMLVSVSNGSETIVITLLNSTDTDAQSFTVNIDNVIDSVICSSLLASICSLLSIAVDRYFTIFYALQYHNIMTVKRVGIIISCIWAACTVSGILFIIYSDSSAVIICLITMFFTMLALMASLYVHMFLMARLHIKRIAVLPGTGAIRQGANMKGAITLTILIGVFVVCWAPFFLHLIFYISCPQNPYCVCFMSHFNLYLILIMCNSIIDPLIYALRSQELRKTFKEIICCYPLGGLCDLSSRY
Method: MCR stimulation in response to polypeptides added to cell culture media was measured by cAMP production via LANCE cAMP assay (Perkin Elmer cat #AD0263).
The manufacturer's recommended protocol was followed. […] To each well was added 5 uL of cell suspension (10,000 CHO-MCR cells per well, with Alexa-labeled antibodies). The mixtures were incubated for 30 minutes at room temperature. Then, to each well was added 10 uL of Detection Mix. The mixtures were incubated for 120 minutes at room temperature. […] This process was repeated for each of CHO-MCR1, CHO-MCR2, CHO-MCR3, CHO-MCR4 and CHO-MCR5 cells.

[2] = Cell Pool B (partially enriched for MCR expression)
[3] = Cell Pool A (partially enriched for MCR expression)

Fold change over baseline (corticosterone) (plasma corticosterone; 0.003 nmol/mouse sc): 0.8
Mean corticosterone (plasma corticosterone; 0.003 nmol/mouse sc): 863553 pg/mL
Fold change over baseline (corticosterone) (plasma corticosterone; 0.03 nmol/mouse sc): 1.0
Mean corticosterone (plasma corticosterone; 0.03 nmol/mouse sc): 116070 pg/mL
Fold change over baseline (corticosterone) (plasma corticosterone; 0.3 nmol/mouse sc): 1.8
Mean corticosterone (plasma corticosterone; 0.3 nmol/mouse sc): 149581 pg/mL
Fold change over baseline (corticosterone) (plasma corticosterone; 1.0 nmol/mouse sc): 3.3
Mean corticosterone (plasma corticosterone; 1.0 nmol/mouse sc): 264845 pg/mL
Fold change over baseline (corticosterone) (plasma corticosterone; 3.0 nmol/mouse sc): 3.4
Mean corticosterone (plasma corticosterone; 3.0 nmol/mouse sc): 488734 pg/mL
Fold change over baseline (corticosterone) (plasma corticosterone; 10.0 nmol/mouse sc): 4.4
Mean corticosterone (plasma corticosterone; 10.0 nmol/mouse sc): 514583 pg/mL
effect on plasma corticosterone (plasma corticosterone; 0.015, 0.15, and 1.5 μg/mouse sc): no significant effect
reduction in plasma corticosterone levels at equally active dose levels (plasma corticosterone; 3 nanomole SEQ ID NO. 26 versus 10 nanomole SEQ ID NO. 10, healthy mice): 40%
plasma corticosterone levels (significantly increased, not different from each other) (plasma corticosterone; 5.2-51.5 μg/mouse sc): ~500 ng/mL
Compound: CCCC[C@H](NC(=O)[C@H](CO)NC(=O)[C@H](Cc1ccc(O)cc1)NC(=O)[C@H](CO)NC(=O)[C@H](CO)NC(=O)CNC(=O)CNC(=O)CNC(=O)CNC(=O)[C@H](CO)NC(=O)CNC(=O)CNC(=O)CNC(=O)CNC(=O)[C@@H]1CCCN1C(=O)[C@H](Cc1ccc(O)cc1)NC(=O)[C@@H](NC(=O)[C@H](CCCCN)NC(=O)[C@@H](NC(=O)[C@@H]1CCCN1C(=O)[C@H](CCCNC(=N)N)NC(=O)[C@H](CCCNC(=N)N)NC(=O)[C@H](CCCCN)NC(=O)[C@H](CCCCN)NC(=O)CNC(=O)[C@@H](NC(=O)[C@@H]1CCCN1C(=O)[C@H](CCCCN)NC(=O)CNC(=O)[C@H](Cc1c[nH]c2ccccc12)NC(=O)[C@H](CCCNC(=N)N)NC(=O)[C@H](Cc1ccccc1)NC(=O)[C@H](Cc1c[nH]cn1)NC(=O)[C@H](CCC(=O)O)NC(=O)[C@H](CCSC)NC(=O)[C@H](CO)NC(=O)[C@H](Cc1ccc(O)cc1)NC(=O)[C@@H](N)CO)C(C)C)C(C)C)C(C)C)C(=O)N[C@@H](CCC(=O)O)C(=O)N[C@@H](Cc1c[nH]cn1)C(=O)N[C@H](Cc1ccccc1)C(=O)N[C@@H](CCCNC(=N)N)C(=O)N[C@@H](Cc1c[nH]c2ccccc12)C(=O)NCC(=O)N[C@@H](CCCCN)C(=O)N1CCC[C@H]1C(=O)N[C@H](C(=O)O)C(C)C [SEQ ID NO. 26, ACTH1-24-linker-linker-NDP-α-MSH]
plasma corticosterone after a single subcutaneous injection (dose response, words) (plasma corticosterone; single sc injection 0.2 ml/mouse, FIG. 14): dose-dependent increase in plasma corticosterone

EC50 (MCR2; Cell Pool C (optimized cell bank)): > 100 nM
Compound: CSCC[C@H](NC(=O)[C@H](CO)NC(=O)[C@H](Cc1ccc(O)cc1)NC(=O)[C@@H](N)CO)C(=O)N[C@@H](CCC(=O)O)C(=O)N[C@@H](Cc1c[nH]cn1)C(=O)N[C@@H](Cc1ccccc1)C(=O)N[C@@H](CCCNC(=N)N)C(=O)N[C@@H](Cc1c[nH]c2ccccc12)C(=O)NCC(=O)N[C@@H](CCCCN)C(=O)N1CCC[C@H]1C(=O)N[C@H](C(N)=O)C(C)C [compound 11]

Compound: NDP-α-MSH-linker-linker-ACTH1-24 (Ac-SYS[Nle]EH[dF]RWGKPVGGGGSGGGGSSYSMEHFRWGKPVGKKRRPVKVYP) [SEQ ID NO. 23]
reducing neutrophil counts in collected exudate (comparison in words) ([1]; FIG. 8): more active than SEQ ID NO. 10
reducing IL-1β cytokine concentrations in collected exudate (comparison in words) ([1]; FIG. 9): more active than SEQ ID NO. 10

EC50 (MCR4): > 20 nM
EC50 (MCR2; [2]): 0.18 nM
Compound: SYSMEHFRWGKPVGKKRRPVKVYPELTGQRLREGDGPDGPADDGAGASYSMEHFRWGKPV [compound 43]

EC50 (MCR2; [2]): 0.15 nM
Compound: SYSMEHFRWGKPVGKKRRPVKVYPELTGQRLREGDGPDGPADDGAGASYS[Nle]EH[dF]RWGKPV [compound 40]

EC50 (MCR4): > 20 nM
EC50 (MCR2; [2]): 0.15 nM
Compound: SYSMEHFRWGKPVGKKRRPVKVYPPLPEGGPEPRSDGAKPGPREGKRSYSMEHFRWGKPV [compound 42]

EC50 (MCR4): 1.6 nM
EC50 (MCR2; [2]): 0.18 nM
Compound: SYSMEHFRWGKPVGKKRRPVKVYPPLPEGGPEPRSDGAKPGPREGKRSYS[Nle]EH[dF]RWGKPV [compound 39]

EC50 (MCR2; [3]): 26 nM
Compound: YVMGHFRWDRFGKRSYSMEHFRWGKPVGKKRRPVKVYP [compound 1]

EC50 (MCR4): > 100 nM
EC50 (MCR2; [2]): > 100 nM
Compound: YVMGHFRWDRFGRRNSSSSGSSGAGQKR [compound 9]

EC50 (MCR2; [3]): > 100 nM
Compound: YVMGHFRWDRFGRRNSSSSGSSGAGQSYSMEHFRWGKPVGKKRRPVKVYP [compound 14]

EC50 (MCR2; [3]): 5 nM
Compound: YVMGHFRWDRFGSYSMEHFRWGKPVGKKRRPVKVYP [compound 15]
